In ChEMBL document CHEMBL5728835, “3-(5-amino-1-oxoisoindolin-2-yl)piperidine-2,6-dione derivatives and uses thereof” (2021):

Biological target: Eukaryotic peptide chain release factor GTP-binding subunit ERF3A (Homo sapiens, UniProt P15170)
Sequence (P15170 whole entry): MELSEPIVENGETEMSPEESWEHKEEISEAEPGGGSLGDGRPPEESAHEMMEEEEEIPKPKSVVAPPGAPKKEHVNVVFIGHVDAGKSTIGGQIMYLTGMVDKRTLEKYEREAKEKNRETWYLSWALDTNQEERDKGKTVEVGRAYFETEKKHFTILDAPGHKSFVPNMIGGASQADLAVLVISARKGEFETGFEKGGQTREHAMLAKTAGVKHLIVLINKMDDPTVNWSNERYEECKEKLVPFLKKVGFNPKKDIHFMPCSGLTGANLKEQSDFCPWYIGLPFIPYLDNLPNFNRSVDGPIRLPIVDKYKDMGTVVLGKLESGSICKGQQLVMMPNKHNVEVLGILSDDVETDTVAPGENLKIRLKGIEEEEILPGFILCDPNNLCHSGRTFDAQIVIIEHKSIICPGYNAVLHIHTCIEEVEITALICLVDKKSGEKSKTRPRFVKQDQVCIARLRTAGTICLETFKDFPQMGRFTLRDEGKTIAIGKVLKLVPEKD

Structure (SMILES): CN[C@H]1CC=CC[C@@H]1N(C)c1ccc2c(c1)CN(C1CCC(=O)NC1=O)C2=O (stereo partly specified)
- EC50: > 50 µM
